Results taken from PubChem BioAssay AID330 (DTP/NCI, 2004).
Several values for one entry are separate records, joined by “and”; a condition that tells them apart may be missing. Equal values may be shown once. Toxic doses and inconclusive results are not listed.

System: P388 leukemia ip, CD2F1 mice, survival T/C
Experiment: NCI In Vivo Anticancer Drug Screen. Data for tumor model P388 Leukemia (intraperitoneal) in CD2F1 (CDF1) mice
Conditions: endpoint: median survival time, higher = longer survival
In short: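 Mice carrying the transplanted tumor received test compound or vehicle. Survival was recorded in each group, and the value is the treated-group measurement divided by that of the vehicle-treated control group.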

[1] = dose: 100.0 mg/kg/injection, schedule: Q04DX003 (ip), vehicle: saline with Tween-80
[2] = dose: 200.0 mg/kg/injection, schedule: Q04DX003 (ip), vehicle: saline with Tween-80
[3] = dose: 100.0 mg/kg/injection, schedule: Q04DX002 (ip), vehicle: saline with Tween-80
[4] = dose: 50.0 mg/kg/injection, schedule: Q04DX003 (ip), vehicle: saline with Tween-80
[5] = dose: 6.25 mg/kg/injection, schedule: Q01DX009 (ip), vehicle: saline
[6] = dose: 12.5 mg/kg/injection, schedule: Q01DX009 (ip), vehicle: saline
[7] = dose: 25.0 mg/kg/injection, schedule: Q01DX009 (ip), vehicle: saline
[8] = dose: 50.0 mg/kg/injection, schedule: Q01DX009 (ip), vehicle: saline with Tween-80
[9] = dose: 100.0 mg/kg/injection, schedule: Q01DX009 (ip), vehicle: saline with Tween-80
[10] = dose: 200.0 mg/kg/injection, schedule: Q01DX009 (ip), vehicle: saline with Tween-80
[11] = dose: 50.0 mg/kg/injection, schedule: Q01DX009 (ip), vehicle: Klucel (hydroxypropylcellulose) (HPC)
[12] = dose: 100.0 mg/kg/injection, schedule: Q01DX009 (ip), vehicle: Klucel (hydroxypropylcellulose) (HPC)
[13] = dose: 200.0 mg/kg/injection, schedule: Q01DX009 (ip), vehicle: Klucel (hydroxypropylcellulose) (HPC)
[14] = dose: 100.0 mg/kg/injection, schedule: Q01DX009 (ip), vehicle: saline

For N=c1nccnn1O, the T/C [1] was 100 % of control, the T/C [2] was 99 % of control and the T/C (dose: 400.0 mg/kg/injection, schedule: Q04DX003 (ip), vehicle: saline with Tween-80) was 100 % of control.

For CCOc1ccc(-c2nn(C(=O)c3ccccc3)c(-c3ccccc3)c2N=Nc2ccc(S(=O)(=O)Nc3nnc(C)s3)cc2)cc1, the T/C [3] was 93 % of control, the T/C (dose: 200.0 mg/kg/injection, schedule: Q04DX002 (ip), vehicle: saline with Tween-80) was 89 % of control and the T/C (dose: 400.0 mg/kg/injection, schedule: Q04DX002 (ip), vehicle: saline with Tween-80) was 93 % of control.

In the case of CCCCC(=O)N/N=C(\C)[C@]1(O)Cc2c(O)c3c(c(O)c2[C@@H](OC2CC(N)C(O)C(C)O2)C1)C(=O)c1c(OC)cccc1C3=O (stereo not given in full), the T/C (dose: 0.12 mg/kg/injection, schedule: Q01DX009 (ip), vehicle: water) is reported as 117 % of control, the T/C (dose: 0.25 mg/kg/injection, schedule: Q01DX009 (ip), vehicle: water) is reported as 122 % of control and the T/C (dose: 0.5 mg/kg/injection, schedule: Q01DX009 (ip), vehicle: water) is reported as 155 % of control. For the same compound, the T/C (dose: 1.0 mg/kg/injection, schedule: Q01DX009 (ip), vehicle: water) was 190 % of control, the T/C (dose: 2.0 mg/kg/injection, schedule: Q01DX009 (ip), vehicle: water) was 180 % of control and 190 % of control and the T/C (dose: 4.0 mg/kg/injection, schedule: Q01DX009 (ip), vehicle: water) was 195 % of control and 238 % of control. The T/C (dose: 8.0 mg/kg/injection, schedule: Q01DX009 (ip), vehicle: water) was 152 % of control and 247 % of control.

For CCn1c(O)c(N=O)c(=O)n(CC)c1=S, the T/C (dose: 50.0 mg/kg/injection, schedule: Q04DX002 (ip), vehicle: saline with Tween-80) was 105 % of control and the T/C [3] was 97 % of control.

With O=C(O)c1cscn1.O=C(O)c1cscn1.O=C(O)c1cscn1.O=C(O)c1cscn1.[Cl][Rh][Cl] the T/C (dose: 50.0 mg/kg/injection, schedule: Q01DX005 (ip), vehicle: saline + alcohol) was 101 % of control, the T/C (dose: 100.0 mg/kg/injection, schedule: Q01DX005 (ip), vehicle: saline + alcohol) was 107 % of control and the T/C (dose: 200.0 mg/kg/injection, schedule: Q01DX005 (ip), vehicle: saline + alcohol) was 104 % of control.

With COc1cc(O)ccc1C(=S)SC the T/C [1] was 106 % of control and the T/C [2] was 99 % of control.

In the case of O=[N+]([O-])c1ccc(-n2[nH]nnc2=S)cc1, the T/C [4] is reported as 98 % of control and 104 % of control, the T/C [1] is reported as 100 % of control and 104 % of control and the T/C [2] is reported as 98 % of control and 91 % of control.

Nc1ncnc2c1cnn2CCCl was tested, and the T/C [5] was 95 % of control, the T/C [6] was 100 % of control and the T/C [7] was 100 % of control.

In the case of NC(CC(=O)O)c1ccccc1 (stereo not given), the T/C [8] is reported as 107 % of control, the T/C [9] is reported as 102 % of control and the T/C [10] is reported as 102 % of control. For the same compound, the T/C (dose: 400.0 mg/kg/injection, schedule: Q01DX009 (ip), vehicle: saline with Tween-80) was 90 % of control.

In the case of CCCCCCCC/C=C\CCCCCCCC(=O)OCC(=O)OC, the T/C [11] is reported as 98 % of control, the T/C [12] is reported as 104 % of control and the T/C [13] is reported as 110 % of control.

CSCCC(NC=O)C(=O)O (stereo not given) was tested, and the T/C (dose: 3.12 mg/kg/injection, schedule: Q01DX009 (ip), vehicle: saline) was 88 % of control, the T/C [5] was 91 % of control and the T/C [6] was 87 % of control. The T/C [7] was 92 % of control, the T/C (dose: 50.0 mg/kg/injection, schedule: Q01DX005 (ip), vehicle: saline) was 98 % of control and the T/C (dose: 100.0 mg/kg/injection, schedule: Q01DX005 (ip), vehicle: saline) was 98 % of control. For the same compound, the T/C (dose: 200.0 mg/kg/injection, schedule: Q01DX005 (ip), vehicle: saline) was 98 % of control.

With NCC(=O)O.[Cl][Ga]([Cl])[Cl] the T/C (dose: 66.0 mg/kg/injection, schedule: Q01DX009 (ip), vehicle: saline) was 110 % of control, the T/C [14] was 110 % of control and the T/C (dose: 100.0 mg/kg/injection, schedule: Q04DX003 (ip), vehicle: saline sonified) was 104 % of control. The T/C (dose: 150.0 mg/kg/injection, schedule: Q01DX009 (ip), vehicle: saline) was 120 % of control.

O=C(O)c1cc(C(=O)CC(=O)c2cc(C(=O)O)c(O)c3ccccc23)c2ccccc2c1O was tested, and the T/C [8] was 94 % of control and the T/C [9] was 88 % of control.

With O=S1(=O)CCN(CCCc2ccccc2)CC1 the T/C [11] was 102 % of control, the T/C [12] was 105 % of control and the T/C [13] was 104 % of control.

CC1=Nc2ccccc2OC2(C1)C(C1COC(C)(C)O1)OC1OC(C)(C)OC12 (stereo not given) was tested, and the T/C (dose: 50.0 mg/kg/injection, schedule: Q01DX005 (ip), vehicle: saline with Tween-80) was 99 % of control, the T/C (dose: 100.0 mg/kg/injection, schedule: Q01DX005 (ip), vehicle: saline with Tween-80) was 95 % of control and the T/C (dose: 200.0 mg/kg/injection, schedule: Q01DX005 (ip), vehicle: saline with Tween-80) was 104 % of control.

For C=C(C)CCCCOCOCCOC, the T/C (dose: 60.0 mg/kg/injection, schedule: Q01DX005 (ip), vehicle: saline with Tween-80) was 99 % of control, the T/C (dose: 120.0 mg/kg/injection, schedule: Q01DX005 (ip), vehicle: saline with Tween-80) was 99 % of control and the T/C (dose: 240.0 mg/kg/injection, schedule: Q01DX005 (ip), vehicle: saline with Tween-80) was 97 % of control.

In the case of CCN(Cc1c(C)nc2ccc(N(C)C)cc2c1Cl)CN(CC)Cc1c(C)nc2ccc(N(C)C)cc2c1Cl, the T/C (dose: 100.0 mg/kg/injection, schedule: Q01DX002 (ip), vehicle: saline with Tween-80) is reported as 100 % of control, the T/C (dose: 200.0 mg/kg/injection, schedule: Q01DX002 (ip), vehicle: saline with Tween-80) is reported as 94 % of control and the T/C (dose: 400.0 mg/kg/injection, schedule: Q01DX002 (ip), vehicle: saline with Tween-80) is reported as 98 % of control.

With COCCC(=NC(C)(C)C)Nc1c(Cl)cccc1Cl the T/C (dose: 50.0 mg/kg/injection, schedule: Q01DX009 (ip), vehicle: saline) was 110 % of control and the T/C [14] was 108 % of control.

With CCOC(=O)C(C(=O)COC)C(=O)OCC the T/C (dose: 12.5 mg/kg/injection, schedule: Q01DX009 (ip), vehicle: water) was 100 % of control, the T/C (dose: 25.0 mg/kg/injection, schedule: Q01DX009 (ip), vehicle: water) was 99 % of control and the T/C (dose: 50.0 mg/kg/injection, schedule: Q01DX009 (ip), vehicle: water) was 99 % of control. For the same compound, the T/C (dose: 100.0 mg/kg/injection, schedule: Q01DX009 (ip), vehicle: water) was 98 % of control and the T/C (dose: 200.0 mg/kg/injection, schedule: Q01DX009 (ip), vehicle: water) was 97 % of control.

For CC(=O)OCC(=O)[C@@]1(O)CC[C@H]2[C@@H]3C[C@H](C)C4=CC(=O)C=C[C@]4(C)[C@@]3(F)[C@@H](O)C[C@@]21C, the T/C [4] was 109 % of control, the T/C [9] was 100 % of control and the T/C [1] was 118 % of control. For the same compound, the T/C [10] was 90 % of control and the T/C [2] was 118 % of control.

For C[N+]1(C)N=C([O-])N(c2ccccc2F)C1=O, the T/C (dose: 100.0 mg/kg/injection, schedule: Q04DX003 (ip), vehicle: Klucel (hydroxypropylcellulose) (HPC)) was 99 % of control and the T/C (dose: 200.0 mg/kg/injection, schedule: Q04DX003 (ip), vehicle: Klucel (hydroxypropylcellulose) (HPC)) was 91 % of control.

In the case of CCCCNc1ccc(C(=O)OC2CCN(C)CC2)c(Cl)c1, the T/C (dose: 0.79 mg/kg/injection, schedule: Q01DX009 (ip), vehicle: saline with Tween-80) is reported as 111 % of control and 119 % of control and 97 % of control, the T/C (dose: 1.56 mg/kg/injection, schedule: Q01DX009 (ip), vehicle: saline with Tween-80) is reported as 106 % of control and 119 % of control and the T/C (dose: 12.5 mg/kg/injection, schedule: Q01DX009 (ip), vehicle: saline with Tween-80) is reported as 107 % of control.

CCOC(=O)Nc1nc2ccc(NC(C)=O)cc2s1 was tested, and the T/C (dose: 6.25 mg/kg/injection, schedule: Q01DX009 (ip), vehicle: Klucel (hydroxypropylcellulose) (HPC)) was 104 % of control, the T/C (dose: 12.5 mg/kg/injection, schedule: Q01DX009 (ip), vehicle: Klucel (hydroxypropylcellulose) (HPC)) was 105 % of control and the T/C (dose: 25.0 mg/kg/injection, schedule: Q01DX009 (ip), vehicle: Klucel (hydroxypropylcellulose) (HPC)) was 102 % of control. The T/C [11] was 96 % of control.

For O/N=C/C=N/O.O/N=C/C=N/O.[Ni], the T/C (dose: 0.78 mg/kg/injection, schedule: Q01DX009 (ip), vehicle: saline) was 100 % of control, the T/C (dose: 1.56 mg/kg/injection, schedule: Q01DX009 (ip), vehicle: saline) was 98 % of control and the T/C (dose: 3.13 mg/kg/injection, schedule: Q01DX009 (ip), vehicle: saline) was 91 % of control. The T/C [5] was 97 % of control and the T/C [6] was 100 % of control.

For O=C(Nc1ccccc1)Nc1ccc(OCc2ccccc2)cc1, the T/C [8] was 90 % of control, the T/C [9] was 88 % of control and the T/C [10] was 114 % of control.

For O=S(=O)(O)c1ccccc1O, the T/C (dose: 25.0 mg/kg/injection, schedule: Q01DX001 (ip), vehicle: saline with Tween-80) was 111 % of control, the T/C (dose: 50.0 mg/kg/injection, schedule: Q01DX001 (ip), vehicle: saline with Tween-80) was 98 % of control and the T/C (dose: 100.0 mg/kg/injection, schedule: Q01DX001 (ip), vehicle: saline with Tween-80) was 99 % of control.
